According to patent US20230085307A1, “PYRIDAZINONE COMPOUND AND HERBICIDE” (NISSAN CHEMICAL CORPORATION, priority 2019, published 2023):

Columns and labels:
[1] = system: false cleavers; assay: Test Example 5: herbicidal effect by foliage application, plastic box (Table 20, symbol Q); format: in vivo, false cleavers (Galium spurium); settings: foliage application, 320 g/ha, three weeks after application
In short: (§1)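 Post-emergence foliar test in sterilized diluvial soil. Compound applied as water-diluted emulsion at a predetermined rate to 14-day-old plants; evaluation at three weeks.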

[2] = system: green foxtail; assay: Test Example 5: herbicidal effect by foliage application, plastic box (Table 20, symbol G); format: in vivo, green foxtail (Setaria viridis); settings: foliage application, 320 g/ha, three weeks after application
In short: as §1

[3] = system: blackgrass; assay: Test Example 4: herbicidal effect by soil treatment (Table 19, symbol J); format: in vivo, blackgrass (Alopecurus myosuroides); settings: amount of applied herbicide 320 g/ha
In short: (§2)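 Scoring uses the grading scale of an earlier test, three weeks post-application. Treatment consists of spraying a diluted emulsion formulation across the surface of sterilized diluvial soil in which seeds are buried near 1.5 cm deep; boxes are kept in a greenhouse between 25° C. and 30° C.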

[4] = system: southern crabgrass; assay: Test Example 5: herbicidal effect by foliage application, plastic box (Table 20, symbol F); format: in vivo, southern crabgrass (Digitaria ciliaris); settings: foliage application, 320 g/ha, three weeks after application
In short: as §1

[5] = system: southern crabgrass; assay: Test Example 4: herbicidal effect by soil treatment (Table 19, symbol F); format: in vivo, southern crabgrass (Digitaria ciliaris); settings: amount of applied herbicide 320 g/ha
In short: as §2

[6] = system: false cleavers; assay: Test Example 4: herbicidal effect by soil treatment (Table 19, symbol Q); format: in vivo, false cleavers (Galium spurium); settings: amount of applied herbicide 320 g/ha
In short: as §2

[7] = system: wild oat; assay: Test Example 4: herbicidal effect by soil treatment (Table 19, symbol I); format: in vivo, wild oat (Avena fatua); settings: amount of applied herbicide 320 g/ha
In short: as §2

[8] = system: Italian ryegrass; assay: Test Example 5: herbicidal effect by foliage application, plastic box (Table 20, symbol K); format: in vivo, Italian ryegrass (Lolium multiflorum); settings: foliage application, 320 g/ha, three weeks after application
In short: as §1

[9] = system: green foxtail; assay: Test Example 4: herbicidal effect by soil treatment (Table 19, symbol G); format: in vivo, green foxtail (Setaria viridis); settings: amount of applied herbicide 320 g/ha
In short: as §2

[10] = system: velvetleaf; assay: Test Example 4: herbicidal effect by soil treatment (Table 19, symbol M); format: in vivo, velvetleaf (Abutilon theophrasti); settings: amount of applied herbicide 320 g/ha
In short: as §2

[11] = system: barnyard grass; assay: Test Example 5: herbicidal effect by foliage application, plastic box (Table 20, symbol H); format: in vivo, barnyard grass (Echinochloa crus-galli); settings: foliage application, 320 g/ha, three weeks after application
In short: as §1

[12] = system: chickweed; assay: Test Example 5: herbicidal effect by foliage application, plastic box (Table 20, symbol P); format: in vivo, common chickweed (Stellaria media); settings: foliage application, 320 g/ha, three weeks after application
In short: as §1

[13] = system: barnyard grass; assay: Test Example 3: herbicidal effect by foliage application, Wagner pot (Table 18, symbol H); format: in vivo, barnyard grass (Echinochloa crus-galli); settings: 320 g/ha
In short: (§3)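 Plants were sown in alluvial soil held under 0.1–0.5 cm standing water and grown 14 days in a greenhouse at 25–30 °C. An emulsifiable formulation, water-diluted to the set dose, was then sprayed onto the foliage, and effects were scored three weeks later using previously defined criteria.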

[14] = system: barnyard grass; assay: Test Example 4: herbicidal effect by soil treatment (Table 19, symbol H); format: in vivo, barnyard grass (Echinochloa crus-galli); settings: amount of applied herbicide 320 g/ha
In short: as §2

[15] = system: rice flat sedge; assay: Test Example 3: herbicidal effect by foliage application, Wagner pot (Table 18, symbol E); format: in vivo, rice flat sedge (Cyperus iria); settings: 320 g/ha
In short: as §3

[16] = system: Chinese sprangletop; assay: Test Example 3: herbicidal effect by foliage application, Wagner pot (Table 18, symbol D); format: in vivo, chinese sprangletop (Leptochloa chinensis); settings: 320 g/ha
In short: as §3

[17] = system: blackgrass; assay: Test Example 5: herbicidal effect by foliage application, plastic box (Table 20, symbol J); format: in vivo, blackgrass (Alopecurus myosuroides); settings: foliage application, 320 g/ha, three weeks after application
In short: as §1

[18] = system: chickweed; assay: Test Example 4: herbicidal effect by soil treatment (Table 19, symbol P); format: in vivo, common chickweed (Stellaria media); settings: amount of applied herbicide 320 g/ha
In short: as §2

[19] = system: redroot pigweed; assay: Test Example 5: herbicidal effect by foliage application, plastic box (Table 20, symbol N); format: in vivo, redroot pigweed (Amaranthus retroflexus); settings: foliage application, 320 g/ha, three weeks after application
In short: as §1

[20] = system: persian speedwell; assay: Test Example 4: herbicidal effect by soil treatment (Table 19, symbol R); format: in vivo, Persian speedwell (Veronica persica); settings: amount of applied herbicide 320 g/ha
In short: as §2

[21] = system: lambsquarters; assay: Test Example 5: herbicidal effect by foliage application, plastic box (Table 20, symbol O); format: in vivo, lambsquarters (Chenopodium album); settings: foliage application, 320 g/ha, three weeks after application
In short: as §1

[22] = system: wild oat; assay: Test Example 5: herbicidal effect by foliage application, plastic box (Table 20, symbol I); format: in vivo, wild oat (Avena fatua); settings: foliage application, 320 g/ha, three weeks after application
In short: as §1

[23] = system: redroot pigweed; assay: Test Example 4: herbicidal effect by soil treatment (Table 19, symbol N); format: in vivo, redroot pigweed (Amaranthus retroflexus); settings: amount of applied herbicide 320 g/ha
In short: as §2

[24] = system: velvetleaf; assay: Test Example 5: herbicidal effect by foliage application, plastic box (Table 20, symbol M); format: in vivo, velvetleaf (Abutilon theophrasti); settings: foliage application, 320 g/ha, three weeks after application
In short: as §1

[25] = system: lambsquarters; assay: Test Example 4: herbicidal effect by soil treatment (Table 19, symbol O); format: in vivo, lambsquarters (Chenopodium album); settings: amount of applied herbicide 320 g/ha
In short: as §2

[26] = system: windgrass; assay: Test Example 4: herbicidal effect by soil treatment (Table 19, symbol L); format: in vivo, windgrass (Apera spica-venti); settings: amount of applied herbicide 320 g/ha
In short: as §2

[27] = system: persian speedwell; assay: Test Example 5: herbicidal effect by foliage application, plastic box (Table 20, symbol R); format: in vivo, Persian speedwell (Veronica persica); settings: foliage application, 320 g/ha, three weeks after application
In short: as §1

[28] = system: Italian ryegrass; assay: Test Example 4: herbicidal effect by soil treatment (Table 19, symbol K); format: in vivo, Italian ryegrass (Lolium multiflorum); settings: amount of applied herbicide 320 g/ha
In short: as §2

[29] = system: windgrass; assay: Test Example 5: herbicidal effect by foliage application, plastic box (Table 20, symbol L); format: in vivo, windgrass (Apera spica-venti); settings: foliage application, 320 g/ha, three weeks after application
In short: as §1

COc1ccc2c(-c3c(O)c(C)nn(C)c3=O)c(-c3ccc(OC)c(OC)c3)sc2c1 [3-080]
Q: false cleavers, herbicidal effect grade [1]: 0 (Herbicidal rate of 5% or less (almost no effect)) | G: green foxtail, herbicidal effect grade [2]: 0 (Herbicidal rate of 5% or less (almost no effect)) | J: blackgrass, herbicidal effect grade [3]: 0 (Herbicidal rate of 5% or less (almost no effect)) | F: southern crabgrass, herbicidal effect grade [4]: 0 (Herbicidal rate of 5% or less (almost no effect)) | F: southern crabgrass, herbicidal effect grade [5]: 0 (Herbicidal rate of 5% or less (almost no effect)) | Q: false cleavers, herbicidal effect grade [6]: 0 (Herbicidal rate of 5% or less (almost no effect)) | I: wild oat, herbicidal effect grade [7]: 0 (Herbicidal rate of 5% or less (almost no effect)) | K: Italian ryegrass, herbicidal effect grade [8]: 4 (Herbicidal rate of 70% or more and less than 90%) | G: green foxtail, herbicidal effect grade [9]: 0 (Herbicidal rate of 5% or less (almost no effect)) | M: velvetleaf, herbicidal effect grade [10]: 0 (Herbicidal rate of 5% or less (almost no effect)) | H: barnyard grass, herbicidal effect grade [11]: 0 (Herbicidal rate of 5% or less (almost no effect)) | P: chickweed, herbicidal effect grade [12]: 5 (Herbicidal rate of 90% or more (almost completely withered)) | herbicidal effect on barnyard grass (H) [13]: 1 (Herbicidal rate of 5% or more and less than 20%) | H: barnyard grass, herbicidal effect grade [14]: 0 (Herbicidal rate of 5% or less (almost no effect)) | herbicidal effect on rice flat sedge (E) [15]: 4 (Herbicidal rate of 70% or more and less than 90%) | herbicidal effect on Chinese sprangletop (D) [16]: 0 (Herbicidal rate of 5% or less (almost no effect)) | J: blackgrass, herbicidal effect grade [17]: 2 (Herbicidal rate of 20% or more and less than 40%) | P: chickweed, herbicidal effect grade [18]: 0 (Herbicidal rate of 5% or less (almost no effect)) | N: redroot pigweed, herbicidal effect grade [19]: 0 (Herbicidal rate of 5% or less (almost no effect)) | R: persian speedwell, herbicidal effect grade [20]: 2 (Herbicidal rate of 20% or more and less than 40%) | O: lambsquarters, herbicidal effect grade [21]: 1 (Herbicidal rate of 5% or more and less than 20%) | I: wild oat, herbicidal effect grade [22]: 0 (Herbicidal rate of 5% or less (almost no effect)) | N: redroot pigweed, herbicidal effect grade [23]: 0 (Herbicidal rate of 5% or less (almost no effect)) | M: velvetleaf, herbicidal effect grade [24]: 1 (Herbicidal rate of 5% or more and less than 20%) | O: lambsquarters, herbicidal effect grade [25]: 0 (Herbicidal rate of 5% or less (almost no effect)) | L: windgrass, herbicidal effect grade [26]: 0 (Herbicidal rate of 5% or less (almost no effect)) | R: persian speedwell, herbicidal effect grade [27]: 5 (Herbicidal rate of 90% or more (almost completely withered)) | K: Italian ryegrass, herbicidal effect grade [28]: 0 (Herbicidal rate of 5% or less (almost no effect)) | L: windgrass, herbicidal effect grade [29]: 0 (Herbicidal rate of 5% or less (almost no effect))
